In patent US12616204B2, “Use of cationic porphyrins as selective herbicide” (UNIVERSITE DE LIMOGES, priority 2021, dated 2026):
Entries after “also recorded” stand apart in the source; their conditions may differ.

Experiments:
[1] = test system: antioxidant machinery (total thiols, catalase, guaiacol peroxidase) of tomato seedlings; test: Total thiols, catalase and guaiacol peroxidase in tomato seedlings cultivated in vitro; type: in vivo, Solanum lycopersicum; settings: tomato seedlings cultivated in vitro on 3.5 μM Zn-TMPyP-rich medium, 1 month
[2] = test system: tomato seedlings (Solanum lycopersicum); settings: 16-hour photoperiod, Guillaumot et al. 2016; cited from earlier work
[3] = test system: adventitious plants (goosefoot, proso millet, rye-grass, dock, black nightshade, dandelion, chickweed); test: Example 4 greenhouse foliar spraying test, adventitious plants; type: in vivo; settings: after 6 weeks
Procedure: (§1) Additional tests in a greenhouse were carried out. […] The treatments started at the cotyledon stage. The harvesting was carried out 6 weeks after germination (and 10 weeks for barley).

[4] = test system: Tomato Solanum lycopersicum var Marmande; test: In vitro cultivation on Zn-TMPyP-rich medium, tomato; type: in vivo; settings: 3.5 μM Zn-TMPyP-rich medium, after 22 days, compared with control
Procedure: (§2) The sterilization of the seeds is carried out according to the following protocol. Surface sterilization is first performed with 70% (v/v) ethanol for 2 minutes at ambient temperature. The ethanol is removed and the seeds are immersed in 20% (v/v) sodium hypochlorite for 15-20 minutes and then thoroughly rinsed with sterile water. The barley caryopses are left in the water for at least one hour before cultivation.
(§3) The germination medium for all of the seeds is Gamborg's synthetic medium, also referred to as B5, (Duchefa Biochemie, Haarlem, the Netherlands), supplemented with 2% sucrose (w/v) and solidified with 0.8% agar (Difco, Dallas, USA). The pH is adjusted to 5.8 with 1 M sodium hydroxide before autoclaving. After autoclaving (120° C., 20 minutes, 1 bar) and cooling of the medium in Petri dishes and/or jars, porphyrin is added at the desired concentration. After sterilization, the seeds are deposited on the solidified B5 medium containing or not containing the porphyrin, under a laminar flow hood. The Petri dishes and jars are placed in culture chambers (16 h photoperiod, 22° C., photon flux density ˜100 μmol·m^−2·s^−1 generated by cool daylight lamps (OSRAM Lumilux 24W)). The jars are used for the transfer of the seedlings and allow them to grow more appropriately. […]

[5] = test system: Tomato Solanum lycopersicum var Marmande; test: Greenhouse foliar spraying test, tomato; settings: foliar spraying 50 μM Zn-TMPyP, two treatments 48 h apart, after one month and two months
Procedure: (§6) The various seeds are cultivated in a greenhouse in commercial compost (universal compost, Fertiligene). The seeds were sown in the greenhouse under controlled temperature and humidity conditions (the temperature varies between 15° C. and 30° C. depending on the season, and the relative humidity varies from 50 to 70%).
(§7) Two spot treatments (about 10 sprays each) spaced 48 h apart were carried out one week after germination. The first treatment was carried out when the seedlings were in the cotyledon stage, the second when the seedlings were in the first-leaf stage.
(§8) The seedlings were monitored every 48 h. The control medium was sprayed with water at the same frequency.

[6] = test system: Millet Echinochloa frumentacea; test: Greenhouse foliar spraying test, millet; settings: foliar spraying 50 μM Zn-TMPyP, two treatments 48 h apart, after one month and two months
Procedure: as §6, §7, §8

[7] = test system: Tobacco (Nicotiana benthamiana); test: In vitro cultivation on Zn-TMPyP-rich medium, tobacco; type: in vivo; settings: 3.5 μM Zn-TMPyP-rich medium, one-and-a-half months of cultivation
Procedure: as §2
(§4) The germination medium for all of the seeds is Gamborg's synthetic medium, also referred to as B5, (Duchefa Biochemie, Haarlem, the Netherlands), supplemented with 2% sucrose (w/v) and solidified with 0.8% agar (Difco, Dallas, USA). The pH is adjusted to 5.8 with 1 M sodium hydroxide before autoclaving. After autoclaving (120° C., 20 minutes, 1 bar) and cooling of the medium in Petri dishes and/or jars, porphyrin is added at the desired concentration. After sterilization, the seeds are deposited on the solidified B5 medium containing or not containing the porphyrin, under a laminar flow hood. The Petri dishes and jars are placed in culture chambers (16 h photoperiod, 22° C., photon flux density ˜100 μmol·m^−2·s^−1 generated by cool daylight lamps (OSRAM Lumilux 24W)). The jars are used for the transfer of the seedlings and allow them to grow more appropriately.

[8] = test system: Potato (Solanum tuberosum) cultivar: Coquine; test: In vitro cultivation on Zn-TMPyP-treated medium, potato explants; type: in vivo; settings: treated medium (3.5 μM Zn-TMPyP) compared to control
Procedure: (§5) Explants are propagated in a sterile manner from 1-month old seedlings for potato and two-month old seedlings for grapevines. The potato explants are propagated on a Murashige and Skoog synthetic medium supplemented with 2% sucrose and myo-inositol ((100 mg/L), pH 5.8. The grapevine explants are cultivated on ½ Chee and Pool medium supplemented with 2% sucrose, pH 5.9. The media are solidified with 0.8% Sobigel. Both media are supplied by Duchefa Biochemie, Haarlem, the Netherlands. The media are autoclaved as described above for the B5 medium. The grapevine explants are placed in a culture chamber at 25° C. and those of potato at 23° C., the same photoperiod and light intensity as for the seed germinations.

[9] = test system: Spinach (Spinacia oleracea); test: Example 4 greenhouse foliar spraying test, spinach; type: in vivo; settings: 5 foliar sprayings 48 h apart, 50, 75, 100 μM, after 6 weeks
Procedure: as §1

Barley (Hordeum sativum) [10] = test: Greenhouse foliar spraying test, barley; settings: foliar spraying 50 μM Zn-TMPyP, two treatments 48 h apart, after one month and two months
Procedure: as §6, §7, §8

[11] = test system: Common nettle Urtica dioica; test: In vitro cultivation on Zn-TMPyP-treated medium, nettle; type: in vivo; settings: medium with Zn-TMPyP 3.5 μM, after 18 days
Procedure: as §2, §4

[12] = Photostability/photodegradation test in water (Soret band, UV-visible spectrometry); settings: solution without surfactant, photoperiod 16 h light/8 h dark
Description: Monitoring the intensity of the Soret band as a function of the irradiation time makes it possible to calculate the percentage of degraded porphyrins.

[13] = test system: Grapevine (Vitis vinifera) cultivar: Sauvignon (clone 379); test: In vitro cultivation on Zn-TMPyP-rich medium, grapevine explants; type: in vivo; settings: 3.5 μM Zn-TMPyP-rich medium, two months of cultivation
Procedure: as §5

[14] = test system: plants of interest (tomato, barley, wheat, spinach, turnip, corn, onion, sunflower); test: Example 4 greenhouse foliar spraying test, plants of interest; type: in vivo; settings: 5 foliar sprayings 48 h apart, regardless of concentration (50, 75, 100 μM), after 6 weeks (10 for barley)
Procedure: as §1

[15] = test system: Arabidopsis thaliana ws ecotype; test: In vitro cultivation on Zn-TMPyP-treated medium, Arabidopsis; type: in vivo; settings: medium with Zn-TMPyP 3.5 μM, after 1 month
Procedure: as §2, §4

Poppy (Papaver rhoeas) [16] = test: Greenhouse foliar spraying test, poppy; settings: foliar spraying 50 μM Zn-TMPyP
Procedure: as §6, §7, §8

Poppy (Papaver rhoeas) [17] = test: In vitro cultivation on Zn-TMPyP-treated medium, poppy; type: in vivo; settings: 3.5 μM Zn-TMPyP, after 6 weeks
Procedure: as §2, §4

fishing worms (maggots) = test: Non-toxicity to fishing worms (maggots), viability after spraying; type: in vivo; settings: for toxicity to fishing worms (maggots): summary statement
Procedure: The maggots were placed in Petri dishes under a photoperiod (16 h) or under dark conditions in a phytotron (24° C.) for 24 h. […] The percentage viability was determined after 24 h.

[18] = test system: antioxidant enzymes and molecules (total thiols, catalase, guaiacol peroxidase) of tomato seedlings; test: Total thiols, catalase and guaiacol peroxidase in greenhouse tomato seedlings after foliar application; settings: foliar application of 50 μM Zn-TMPyP, two months
Procedure: Seedlings (roots and aerial parts separated before freezing) are ground in liquid nitrogen. The powder is transferred into an Eppendorf tube and weighed (between 200 and 100 mg per extraction). The extract is acidified with 0.2 N vortexed HCl and centrifuged (13 000 g 10 min 4° C.). 500 μL of the supernatant is neutralized with 400 μL of NaOH (0.2 N) and 50 μL of Na2HPO4. Then, 700 μL of 0.12 M Na2HPO4, 6 mM EDTA and 6 mM DTNB are added to 200 μL of the neutralized solution. After establishing a glutathione range, the total thiols contained in the samples are determined by UV-vis spectrometry at 412 nm and related to the fresh weight.
Seedlings (roots and aerial parts separated before freezing) are ground in liquid nitrogen. […]
Catalase activity is quantifiable by measuring the disappearance of H2O2 by disproportionation into H2O and O2. […] The kinetics of the disappearance of H2O2 are measured for 200 seconds every 20 seconds at 240 nm. The activity is calculated using the molar extinction coefficient of H2O2 which is 43.6 mM^−1·cm^−1.
Its activity is measured by the oxidation of guaiacol in the presence of H2O2. […] The kinetics of the appearance of the oxidized guaiacol are measured for 120 seconds every 10 seconds at 436 nm. The activity is calculated using the molar extinction coefficient of H2O2 which is 25.5 mM^−1·cm^−1.

Barley (Hordeum sativum) [19] = test: In vitro cultivation on Zn-TMPyP-rich medium, barley; type: in vivo; settings: 3.5 μM Zn-TMPyP-rich medium
Procedure: as §2, §3

**Q.** Which “antioxidant machinery (total thiols, catalase, guaiacol peroxidase)” value [1] does the source give for “zinc tetra(N-methylpyridyl)porphyrin tetrachloride [Zn-TMPyP]” here?
**A.** significantly inhibited

**Q.** What about the “tomato seedling growth in vitro” value [2] of the same substance?
**A.** significantly altered

**Q.** And the “growth of the adventitious plants” value ([3]; 5 foliar sprayings 48 h apart, C1=50, C2=75, C3=100 μM, dose-dependent or at a specific dose)?
**A.** drastically adversely impacts

**Q.** What about the “destruction of the adventitious plants” value ([3]; 5 foliar sprayings, certain concentrations (of 50, 75, 100 μM)) of the same substance?
**A.** completely destroy

**Q.** And the development of tomato [4]?
**A.** significantly inhibited

**Q.** And the “growth of tomato (plant of interest)” value [5]?
**A.** grow perfectly

**Q.** And the “herbicidal effect on millet” value [6]?
**A.** completely dead

**Q.** What about the “development of tobacco seedlings” value [7] of the same substance?
**A.** considerable inhibition

**Q.** What about the “growth of potato at the stem and roots” value [8] of the same substance?
**A.** slight growth retardation

**Q.** And the growth of spinach [9]?
**A.** slightly affected

**Q.** And the “growth of barley (plant of interest)” value (Barley (Hordeum sativum) [10])?
**A.** grow perfectly

**Q.** What about the growth of nettle [11] of the same substance?
**A.** very significant inhibition

**Q.** And the “days of photoperiod after which the solution disappears” value [12]?
**A.** 29 days

**Q.** And the “development of grapevine seedlings” value [13]?
**A.** considerable inhibition

**Q.** And the “growth of the plants of interest” value [14]?
**A.** grow perfectly

**Q.** What about the “growth of Arabidopsis” value [15] of the same substance?
**A.** very significant inhibition

**Q.** What about the “time to first symptoms after the first treatment” value (Poppy (Papaver rhoeas) [16]; adventitious plants (poppy, millet)) of the same substance?
**A.** 24 h

**Q.** What about the “time until the poppy is destroyed after the first treatment” value (Poppy (Papaver rhoeas) [16]; first 10 sprayings) of the same substance?
**A.** 48 h

**Q.** What about the “herbicidal effect on poppy” value (Poppy (Papaver rhoeas) [16]; two treatments 48 h apart, after one month and two months) of the same substance?
**A.** completely dead; also recorded: completely destroyed

**Q.** What about the “response of poppy seedlings” value (Poppy (Papaver rhoeas) [17]) of the same substance?
**A.** remarkable adverse impact and inhibition

**Q.** And the “effect on viability of maggots (fishing worms)” value (fishing worms (maggots); spraying of 50 μM Zn-TMPyP, 24 h, in the presence and in the absence of light)?
**A.** harmlessness

**Q.** And the “toxicity to fishing worms (maggots)” value (fishing worms (maggots))?
**A.** non-toxicity

**Q.** And the “antioxidant enzymes and molecules” value [18]?
**A.** remain constant

**Q.** And the “thiols in the roots” value [18]?
**A.** increase

**Q.** And the “appearance of barley leaves” value (Barley (Hordeum sativum) [19])?
**A.** yellowing followed by wilting

**Q.** What about the “growth of the barley” value (Barley (Hordeum sativum) [19]; after one month of cultivation) of the same substance?
**A.** adversely impacted

**Q.** For “tetra(N-methylpyridyl)porphyrin tetrachloride [TMPyP]”, which “tomato seedling growth in vitro” value [2] is on record?
**A.** significantly altered

**Q.** What about the “toxicity to fishing worms (maggots)” value (fishing worms (maggots)) of the same substance?
**A.** non-toxicity
